Tested on: Antibody to Immunogen V
Assay type: binding, sheep
Settings: Cross-reactants at 100 ng/ml; 1000ng/ml; single level of cross reactants
Method: (§1) The wells of an enhanced binding 96 well polystyrene microtiter plate were coated with IgG fraction of antiserum raised to Immunogen VI, diluted in 10mM Tris, pH8.5 (125µl/well). The appropriate antibody coating dilution was determined using standard ELISA checkerboard techniques. The plate was incubated overnight at 4°C, washed 4 times over 10 minutes with Tris buffered saline containing Tween 20 (TBST) and tapped dry. Standard solutions of RCS-4 were prepared in TBST at 0, 0.3125, 0.625, 1.25, 2.5, 5, 10 and 20ng/ml, and 50µl of each was added to the appropriate wells (see figure 1). 75µl of conjugate (appropriate hapten-HRP) diluted in Tris buffer (pH 7.2) containing EDTA, D-mannitol, sucrose, thimerosal and BSA, was added to each of the wells. The appropriate dilution of conjugate was also determined using standard ELISA checkerboard techniques. The plate was incubated at 25°C for 1 hour. Excess unbound conjugate was removed by washing 6 times over a 10 minute period with TBST. 125µl oftetramethylbenzidine (TMB) substrate solution was added to each well of the plate that was then incubated for 20 minutes in the dark at room temperature. The reaction was terminated by addition of 125µl 0.2M H2SO4 to each well. The absorbance was then measured at 450nm using a microtiter plate reader. The data are inputted to a computer program called 'KC Junior'. It is a 4 parameter fit curve and allow the calculatation of concentrations between the standard runs. This program is used to calculate the IC50s by dividing the 0ng/ml OD value by 2 and obtaining the concentration value from the curve for this OD.
In a similar manner to that described above, the wells of a 96-well microtiter plate were coated with the IgG fraction of the antiserum raised to Immunogens IV, V, VII or VIII. Standard solutions (RCS-8 for Immunogen V) were prepared in TBST at 0, 1.25, 2.5, 5, 10, 20, 40 and 80ng/ml and conjugate was employed as detection reagent.
(§2) The data set our in Tables 3 and 4 are generated using antibodies raised against the indicated Immunogens in a competitive binding assay with the indicated tracers, using the indicated standards: Table 2
(§3) In order to determine the specificity of the competitive ELISAs, standard solutions of a range of structurally similar synthetic cannabinoids and their metabolites were prepared in TBST. Using the calibration curves generated and employing a single level of cross reactants, these were used to determine the cross-reactivity of each immunoassay with these substances. Table 4: Cross reactivity of the competitive ELISAs for synthetic cannabinoids and their metabolites

| SMILES | %B/B0 |
| --- | --- |
| OCCc1c[nH]c2ccc(O)cc12 [5-hydroxytryptophol] | 90.61% |
| CS(=O)(=O)O.Cc1c(C(=O)c2cccc3ccccc23)c2cccc3c2n1[C@H](CN1CCOCC1)CO3 [(+)WIN 55212-2 (mesylate)] | 68.43% |
| CN1CCCCC1Cn1cc(C(=O)c2ccccc2I)c2ccccc21 (stereo not drawn) [AM-223] | 54.35% |
| COc1ccc(C(=O)c2c(C)n(CCN3CCOCC3)c3cc(I)ccc23)cc1 [AM-630 (other name 6-Iodopravadoline), 6-Iodopravadoline] | 71.78% |
| O=C(c1cccc(I)c1)c1cn(CCCCCF)c2ccccc12 [AM-694 3-iodo isomer] | 63.18% |
| O=C(c1ccc(I)cc1)c1cn(CCCCCF)c2ccccc12 [AM-694 4-iodo isomer] | 77.65% |
| O=C(c1ccccc1I)c1cn(CCCCCF)c2ccccc12 [AM-694] | 64.61% |
| CN1CCCCC1Cn1cc(C(=O)c2cccc3ccccc23)c2ccccc21 (stereo not drawn) [AM-1220] | 63.74% |
| CN1CCCCC1Cn1cc(C(=O)c2cc([N+](=O)[O-])ccc2I)c2ccccc21 (stereo not drawn) [AM-1241] | 71.68% |
| O=C(c1cccc2ccccc12)c1cn(CCCC(O)CF)c2ccccc12 (stereo not drawn) [AM-2201 N-(4-hydroxypentyl) metabolite] | 50.40% |
| O=C(c1cccc2ccccc12)c1cn(CCCCCF)c2ccccc12 [AM-2201] | 76.07% |
| CCCCCCC(C)(C)C1=CC(=O)C(C2CCCC(O)C2)=CC1=O (stereo not drawn) [CP-47,497-para-quinone analogue] | 72.98% |
| CCCCCc1cc(O)c2c(c1)OC(C)(C)c1ccc(C)cc1-2 [Cannabinol] | 64.54% |
| CCCCCc1cc(O)c2c(c1)OC(C)(C)[C@@H]1CCC(C)=C[C@@H]21 [Delta 9 THC] | 65.28% |
| CCCCCCC(C)(C)c1cc(O)c2c(c1)OC(C)(C)[C@@H]1CC=C(CO)C[C@@H]21 [HU-210] | 67.43% |
| CCCCCCC(C)(C)c1cc(O)c2c(c1)OC(C)(C)[C@H]1CC=C(CO)C[C@H]21 [HU-211 (Dexanabinol), Dexanabinol] | 71.68% |
| CCCCCCC(C)(C)c1cc(OC)c([C@@H]2C=C(CO)[C@@H]3C[C@H]2C3(C)C)c(OC)c1 [HU-308] | 71.33% |
| O=C(O)c1c[nH]c2ccccc12 [Indole-3-carboxylic Acid] | 64.69% |
| CCCCCn1cc(C(=O)c2ccc3ccccc3c2)c2ccccc21 [JWH 018 2'-naphthyl isomer] | 88.32% |
| CC(C)CCn1cc(C(=O)c2cccc3ccccc23)c2ccccc21 [JWH 018 N-(3-methylbutyl) isomer (JWH-073 3-methylbutyl homologue)] | 63.42% |
| CCCCCn1cc(C(=O)C23CC4CC(CC(C4)C2)C3)c2ccccc21 [JWH 018 adamantyl analog] | 86.65% |
| CCCCn1cc(C(=O)c2c(C)ccc3ccccc23)c2ccccc21 [JWH 073 2-methylnaphthyl analog] | 77.45% |

Tested on: Antibody to Immunogen VI
Assay type: binding, sheep
Settings: Cross-reactants at 100 ng/ml; 1000ng/ml; single level of cross reactants
Method: as §1, §2, §3

| SMILES | %B/B0 |
| --- | --- |
| OCCc1c[nH]c2ccc(O)cc12 [5-hydroxytryptophol] | 95.67% |
| CS(=O)(=O)O.Cc1c(C(=O)c2cccc3ccccc23)c2cccc3c2n1[C@H](CN1CCOCC1)CO3 [(+)WIN 55212-2 (mesylate)] | 91.65% |
| CN1CCCCC1Cn1cc(C(=O)c2ccccc2I)c2ccccc21 (stereo not drawn) [AM-223] | 79.16% |
| COc1ccc(C(=O)c2c(C)n(CCN3CCOCC3)c3cc(I)ccc23)cc1 [AM-630 (other name 6-Iodopravadoline), 6-Iodopravadoline] | 39.25% |
| O=C(c1cccc(I)c1)c1cn(CCCCCF)c2ccccc12 [AM-694 3-iodo isomer] | 44.38% |
| O=C(c1ccc(I)cc1)c1cn(CCCCCF)c2ccccc12 [AM-694 4-iodo isomer] | 16.99% |
| O=C(c1ccccc1I)c1cn(CCCCCF)c2ccccc12 [AM-694] | 70.77% |
| CN1CCCCC1Cn1cc(C(=O)c2cccc3ccccc23)c2ccccc21 (stereo not drawn) [AM-1220] | 81.44% |
| CN1CCCCC1Cn1cc(C(=O)c2cc([N+](=O)[O-])ccc2I)c2ccccc21 (stereo not drawn) [AM-1241] | 99.43% |
| O=C(c1cccc2ccccc12)c1cn(CCCC(O)CF)c2ccccc12 (stereo not drawn) [AM-2201 N-(4-hydroxypentyl) metabolite] | 77.68% |
| O=C(c1cccc2ccccc12)c1cn(CCCCCF)c2ccccc12 [AM-2201] | 76.96% |
| CCCCCCC(C)(C)C1=CC(=O)C(C2CCCC(O)C2)=CC1=O (stereo not drawn) [CP-47,497-para-quinone analogue] | 94.38% |
| CCCCCc1cc(O)c2c(c1)OC(C)(C)c1ccc(C)cc1-2 [Cannabinol] | 95.90% |
| CCCCCc1cc(O)c2c(c1)OC(C)(C)[C@@H]1CCC(C)=C[C@@H]21 [Delta 9 THC] | 94.84% |
| CCCCCCC(C)(C)c1cc(O)c2c(c1)OC(C)(C)[C@@H]1CC=C(CO)C[C@@H]21 [HU-210] | 90.89% |
| CCCCCCC(C)(C)c1cc(O)c2c(c1)OC(C)(C)[C@H]1CC=C(CO)C[C@H]21 [HU-211 (Dexanabinol), Dexanabinol] | 98.97% |
| CCCCCCC(C)(C)c1cc(OC)c([C@@H]2C=C(CO)[C@@H]3C[C@H]2C3(C)C)c(OC)c1 [HU-308] | 97.34% |
| O=C(O)c1c[nH]c2ccccc12 [Indole-3-carboxylic Acid] | 95.41% |
| CCCCCn1cc(C(=O)c2ccc3ccccc3c2)c2ccccc21 [JWH 018 2'-naphthyl isomer] | 44.48% |
| CC(C)CCn1cc(C(=O)c2cccc3ccccc23)c2ccccc21 [JWH 018 N-(3-methylbutyl) isomer (JWH-073 3-methylbutyl homologue)] | 66.63% |
| CCCCCn1cc(C(=O)C23CC4CC(CC(C4)C2)C3)c2ccccc21 [JWH 018 adamantyl analog] | 93.91% |
| CCCCn1cc(C(=O)c2c(C)ccc3ccccc23)c2ccccc21 [JWH 073 2-methylnaphthyl analog] | 86.98% |

Tested on: Antibody to Immunogen III
Assay type: binding, sheep
Settings: Cross-reactants at 100 ng/ml; 1000ng/ml; single level of cross reactants
Method: as §1
In a similar manner to that described above, the wells of a 96-well microtiter plate were coated with the IgG fraction of the antiserum raised to Immunogens I, II or III. Standard solutions (JWH-250 for Immunogen III) were applied at 0, 0.625, 1.25, 2.5, 5, 10, 20 and 40ng/ml and conjugate was employed as detection reagent.
as §2, §3

| SMILES | %B/B0 |
| --- | --- |
| OCCc1c[nH]c2ccc(O)cc12 [5-hydroxytryptophol] | 85.39% |
| CS(=O)(=O)O.Cc1c(C(=O)c2cccc3ccccc23)c2cccc3c2n1[C@H](CN1CCOCC1)CO3 [(+)WIN 55212-2 (mesylate)] | 93.28% |
| CN1CCCCC1Cn1cc(C(=O)c2ccccc2I)c2ccccc21 (stereo not drawn) [AM-223] | 95.28% |
| COc1ccc(C(=O)c2c(C)n(CCN3CCOCC3)c3cc(I)ccc23)cc1 [AM-630 (other name 6-Iodopravadoline), 6-Iodopravadoline] | 91.34% |
| O=C(c1cccc(I)c1)c1cn(CCCCCF)c2ccccc12 [AM-694 3-iodo isomer] | 67.86% |
| O=C(c1ccc(I)cc1)c1cn(CCCCCF)c2ccccc12 [AM-694 4-iodo isomer] | 65.53% |
| O=C(c1ccccc1I)c1cn(CCCCCF)c2ccccc12 [AM-694] | 72.80% |
| CN1CCCCC1Cn1cc(C(=O)c2cccc3ccccc23)c2ccccc21 (stereo not drawn) [AM-1220] | 99.70% |
| CN1CCCCC1Cn1cc(C(=O)c2cc([N+](=O)[O-])ccc2I)c2ccccc21 (stereo not drawn) [AM-1241] | 102.11% |
| O=C(c1cccc2ccccc12)c1cn(CCCC(O)CF)c2ccccc12 (stereo not drawn) [AM-2201 N-(4-hydroxypentyl) metabolite] | 68.76% |
| O=C(c1cccc2ccccc12)c1cn(CCCCCF)c2ccccc12 [AM-2201] | 67.95% |
| CCCCCCC(C)(C)C1=CC(=O)C(C2CCCC(O)C2)=CC1=O (stereo not drawn) [CP-47,497-para-quinone analogue] | 96.58% |
| CCCCCc1cc(O)c2c(c1)OC(C)(C)c1ccc(C)cc1-2 [Cannabinol] | 97.02% |
| CCCCCc1cc(O)c2c(c1)OC(C)(C)[C@@H]1CCC(C)=C[C@@H]21 [Delta 9 THC] | 91.21% |
| CCCCCCC(C)(C)c1cc(O)c2c(c1)OC(C)(C)[C@@H]1CC=C(CO)C[C@@H]21 [HU-210] | 91.13% |
| CCCCCCC(C)(C)c1cc(O)c2c(c1)OC(C)(C)[C@H]1CC=C(CO)C[C@H]21 [HU-211 (Dexanabinol), Dexanabinol] | 95.96% |
| CCCCCCC(C)(C)c1cc(OC)c([C@@H]2C=C(CO)[C@@H]3C[C@H]2C3(C)C)c(OC)c1 [HU-308] | 96.26% |
| O=C(O)c1c[nH]c2ccccc12 [Indole-3-carboxylic Acid] | 91.19% |
| CCCCCn1cc(C(=O)c2ccc3ccccc3c2)c2ccccc21 [JWH 018 2'-naphthyl isomer] | 76.35% |
| CC(C)CCn1cc(C(=O)c2cccc3ccccc23)c2ccccc21 [JWH 018 N-(3-methylbutyl) isomer (JWH-073 3-methylbutyl homologue)] | 82.58% |
| CCCCCn1cc(C(=O)C23CC4CC(CC(C4)C2)C3)c2ccccc21 [JWH 018 adamantyl analog] | 84.69% |
| CCCCn1cc(C(=O)c2c(C)ccc3ccccc23)c2ccccc21 [JWH 073 2-methylnaphthyl analog] | 86.14% |

Source: EP2698384A1, “Detection of synthetic cannabinoids” (priority 2012, dated 2014)
